“And” between values parts separate entries of the source, which are not always exact repeats. Equal entries are not always repeated. After the bases stand the sugars from the 5' end (letter, count) and the backbone: PS all phosphorothioate, else s phosphorothioate and o phosphodiester by linkage. Methylation of C is not given here. e = 2'-O-(2-methoxyethyl) (MOE); k = constrained ethyl (cEt); d = 2'-deoxy (DNA)
Columns and labels:
IRF4 = conditions: ASO
HSD17B13 = conditions: ASO, HepaRG

| Sequence | target mRNA inhibition (IRF4; SK-MEL-28, 4 µM) [%] | target mRNA inhibition (HSD17B13; 1 µM) [%] | also measured |
| --- | --- | --- | --- |
| CATCAATCATGATATT (sugars k3 d10 k3, PS) | 25 | – | – |
| GGGAGAGCGGAGGCGG (sugars k3 d10 k3, PS) | 22 | – | – |
| CTGAAGACAATGTTGT (sugars k3 d10 k3, PS) | 55 | – | – |
| TCTGATCCGGACTCTC (sugars k3 d10 k3, PS) | 41 | – | – |
| CCTTATTAGACTGACA (sugars k3 d10 k3, PS) | 48 | – | – |
| GTAGGACAGACAAAAA (sugars k3 d10 k3, PS) | 23 | – | – |
| CAGTTGTAAATGAGTC (sugars kkdddddddddkekek, PS) | – | – | target mRNA inhibition (IRF4; H929, 0.00067 µM): 22%; target mRNA inhibition (IRF4; H929, 0.002 µM): 41%; target mRNA inhibition (IRF4; H929, 0.00667 µM): 67%; target mRNA inhibition (IRF4; H929, 0.02 µM): 74%; target mRNA inhibition (IRF4; H929, 0.04 µM): 40%; target mRNA inhibition (IRF4; KMS11, 0.2 µM): 83% and 93%; target mRNA inhibition (IRF4; MM.1R, 0.074 µM): 28%; target mRNA inhibition (IRF4; MM.1R, 0.222 µM): 55%; target mRNA inhibition (IRF4; MM.1R, 0.666 µM): 78%; target mRNA inhibition (IRF4; MM.1R, 1 µM): 81%; target mRNA inhibition (IRF4; MM.1R, 2 µM): 91% |
| ATGGACATCTGCGGGT (sugars k3 d10 k3, PS) | 50 | – | – |
| CTTTAACAAGTCCTCA (sugars k3 d10 k3, PS) | 52 | – | – |
| CATATACATTGAGGCA (sugars k3 d10 k3, PS) | – | – | target mRNA inhibition (IRF4; MM.1R, 1 µM): 20% |
| CGTGAGAATGTTGGCT (sugars k3 d10 k3, PS) | 49 | – | – |
| TCAGTTTGTGAAGCAT (sugars kkdddddddddekeke, PS) | – | – | target mRNA inhibition (IRF4; MM.1R, 1 µM): 45% |
| GGCGAGTGGCGGGTAG (sugars k3 d10 k3, PS) | 8 | – | – |
| GTCCCCTCTACTTCAG (sugars k3 d10 k3, PS) | 41 | – | – |
| AAAAGCCCAAAATAGG (sugars k3 d10 k3, PS) | -12 | – | – |
| TTATACTGTCTGGTTA (sugars k3 d10 k3, PS) | 44 | – | – |
| GCACAGTCTTTTCGCA (sugars k3 d10 k3, PS) | 20 | – | – |
| CCTTTAGTGTCGCCAT (sugars k3 d10 k3, PS) | 58 | – | – |
| GTGTGCTTGCCAAGCC (sugars kdddddddddkekeke, PS) | – | – | target mRNA inhibition (IRF4; MM.1R, 1 µM): 6% and 22% |
| TAGAATGAGAGGTGTC (sugars k3 d10 k3, PS) | 29 | – | – |
| CGGAGGTTCCTTGAGG (sugars k3 d10 k3, PS) | – | – | target mRNA inhibition (IRF4; H929, 0.04 µM): 5% and 10%; target mRNA inhibition (IRF4; KMS11, 0.2 µM): 28% and 21%; target mRNA inhibition (IRF4; MM.1R, 0.0625 µM): 6%; target mRNA inhibition (IRF4; MM.1R, 0.25 µM): 29%; target mRNA inhibition (IRF4; MM.1R, 1 µM): 42% and 52%; target mRNA inhibition (IRF4; MM.1R, 4 µM): 64% |
| GAGTCACCTGGAATCT (sugars k4 d8 k4, PS) | 6 | – | – |
| CGCATAGGTCCTTCAG (sugars k3 d10 k3, PS) | – | – | target mRNA inhibition (IRF4; MM.1R, 1 µM): 6% |

| Sequence | target mRNA inhibition (IRF4; SK-MEL-28, 4 µM) [%] | target mRNA inhibition (HSD17B13; 1 µM) [%] | also measured |
| --- | --- | --- | --- |
| TACTGCTTGAGGTTTT (sugars kkdddddddddkdkdk, PS) | – | – | target mRNA inhibition (IRF4; MM.1R, 1 µM): 15% |
| AATCATGATATTAGAG (sugars k3 d10 k3, PS) | 31 | – | – |
| TGACAGCCGAAGCATT (sugars k3 d10 k3, PS) | 38 | – | – |
| GGAAGTTTACACTGGA (sugars k3 d9 k3 e1, PS) | – | – | target mRNA inhibition (IRF4; MM.1R, 0.074 µM): 20%; target mRNA inhibition (IRF4; MM.1R, 0.222 µM): 45%; target mRNA inhibition (IRF4; MM.1R, 0.666 µM): 77%; target mRNA inhibition (IRF4; MM.1R, 1 µM): 78%; target mRNA inhibition (IRF4; MM.1R, 2 µM): 91% |
| TGGCAACCATTTTCAC (sugars k3 d10 k3, PS) | 7 | – | – |
| GTCCAGCTGGCTCCGC (sugars k3 d10 k3, PS) | 53 | – | – |
| GTTGAACCCATCTTGA (sugars k3 d10 k3, PS) | 16 | – | – |
| AGTTCATGTAAAGTCT (sugars kddddddddddkekek, PS) | – | – | target mRNA inhibition (IRF4; MM.1R, 1 µM): 25% and 22% |
| CCAGGATTCGCCATGG (sugars k3 d10 k3, PS) | – | – | target mRNA inhibition (IRF4; MM.1R, 1 µM): 13% |
| GCTTAGTGTAGAATTG (sugars k3 d10 k3, PS) | – | 16 | – |
| GATTAAGCAGAATTGT (sugars k3 d9 k3 e1, PS) | – | 28 | – |
| AATTTATTGGTATGGT (sugars k3 d10 k3, PS) | – | 30 | – |
| ACATTGCAGTTATTAG (sugars k3 d10 k3, PS) | – | 42 | – |
| TAAACATCTCTGGGAC (sugars k3 d10 k3, PS) | – | 51 | – |
| CAAGTTTTCACCTCAG (sugars k3 d10 k3, PS) | – | 93 | target mRNA inhibition (HSD17B13; 0.02 µM): 17%; target mRNA inhibition (HSD17B13; 0.078 µM): 41%; target mRNA inhibition (HSD17B13; 0.313 µM): 75%; target mRNA inhibition (HSD17B13; 1.25 µM): 92%; target mRNA inhibition (HSD17B13; 5 µM): 95% |
| TTTCATATCCAGTAGG (sugars k3 d10 k3, PS) | – | 36 | – |
| TTTAGAATACGCTGAG (sugars k3 d10 k3, PS) | – | 44 | – |
| ATGTTATCTCAAGTCA (sugars k3 d10 k3, PS) | – | 79 | – |
| GGTTTTGATACCAGTT (sugars k3 d10 k3, PS) | – | 58 | – |
| CATCTCTGGGACCAAG (sugars kkdddddddddkekek, PS) | – | 44 | – |
| GTAAACGACTCTGTAA (sugars k3 d10 k3, PS) | – | 8 | – |
| GCAGTTATTAGAAGTC (sugars kkdddddddddkekek, PS) | – | 68 | – |
| TAGGATGTTGACCTCA (sugars k3 d10 k3, PS) | – | 19 | – |

| Sequence | target mRNA inhibition (IRF4; SK-MEL-28, 4 µM) [%] | target mRNA inhibition (HSD17B13; 1 µM) [%] | also measured |
| --- | --- | --- | --- |
| ATCAATTTATCATACC (sugars k3 d10 k3, PS) | – | 11 | – |
| TCTTGGGTCCATTGTT (sugars k3 d10 k3, PS) | – | 60 | – |
| CTCCATCATCGATGGA (sugars k3 d10 k3, PS) | – | 0 | – |
| CTTGAACAGTCTTAAA (sugars k3 d9 k3 e1, PS) | – | 43 | – |
| CATTCGGCTAGGCGCG (sugars k3 d10 k3, PS) | – | 46 | – |
| TGATGTAGTGGGAGTC (sugars k3 d9 k3 e1, PS) | – | – | target mRNA inhibition (HSD17B13; 0.02 µM): 5%; target mRNA inhibition (HSD17B13; 0.078 µM): 0%; target mRNA inhibition (HSD17B13; 0.313 µM): 36%; target mRNA inhibition (HSD17B13; 1.25 µM): 62%; target mRNA inhibition (HSD17B13; 5 µM): 74% |
| CCTTAGAGTGAATCAT (sugars k3 d10 k3, PS) | – | 65 | – |
| ATTCTGTGGCATGGCT (sugars kkdddddddddkekek, PS) | – | 55 | – |
| AGAGAGTAATCAGTTT (sugars kkdddddddddkekek, PS) | – | 52 | – |
| ACCACGATTGTTACAT (sugars k3 d10 k3, PS) | – | 34 | – |
| AGTTGCACCGTTTTGG (sugars k3 d10 k3, PS) | – | 55 | – |
| TTTAAAATAGAGTCGG (sugars k3 d10 k3, PS) | – | 69 | target mRNA inhibition (HSD17B13; 0.02 µM): 0%; target mRNA inhibition (HSD17B13; 0.078 µM): 0%; target mRNA inhibition (HSD17B13; 0.313 µM): 1%; target mRNA inhibition (HSD17B13; 1.25 µM): 48%; target mRNA inhibition (HSD17B13; 5 µM): 77% |
| CGCTACTGTAGGCTAA (sugars k3 d10 k3, PS) | – | 68 | – |
| GTAATCACAAGTAAGG (sugars k3 d10 k3, PS) | – | 70 | target mRNA inhibition (HSD17B13; 0.02 µM): 0%; target mRNA inhibition (HSD17B13; 0.078 µM): 12%; target mRNA inhibition (HSD17B13; 0.313 µM): 32%; target mRNA inhibition (HSD17B13; 1.25 µM): 70%; target mRNA inhibition (HSD17B13; 5 µM): 93% |
| ATCCCACAGAACCAAT (sugars k3 d10 k3, PS) | – | 34 | – |
| CACTGTGACGATGTGG (sugars k3 d10 k3, PS) | – | 10 | – |
| CTGTAGGTTTTGCTTC (sugars k3 d10 k3, PS) | – | 27 | – |
| TAGGATGATGTTCATG (sugars k3 d10 k3, PS) | – | 72 | – |
| GATGGTAAGGAGTAGT (sugars k3 d10 k3, PS) | – | 28 | – |
| TCATAGTGGACTTCAT (sugars k3 d9 k3 e1, PS) | – | 54 | – |
| GAAGAAGTGCTTTTGT (sugars k3 d10 k3, PS) | – | 50 | – |
